This is an account of results in article PMC6273963, “Design, Synthesis, and Biological Evaluation of Some Novel Pyrrolizine Derivatives as COX Inhibitors with Anti-Inflammatory/Analgesic Activities and Low Ulcerogenic Liability” (Molecules, 2016).

Entries after “also recorded” stand apart in the source; their conditions may differ.

The test system of series [1] is COX-1. The following applies: cited from earlier work; for IC50: literature values, Figures 1 and 2.
Series [2] deals with COX-2. Also noted: method as in PMID 10027870, PMID 8021931, PMID 12660020. To be noted: literature values, Figures 1 and 2; cited from earlier work.
In series [3] the test system is 5-LOX. The arrangement: method as in PMID 8021931, PMID 9396390, PMID 12660020, PMID 19719242. To be noted: literature values, Figures 1 and 2; cited from earlier work.
The target in series [4] is T1, COX-1 (ovine) (Ovis aries, UniProt P05979).
T1 sequence (P05979 25-600): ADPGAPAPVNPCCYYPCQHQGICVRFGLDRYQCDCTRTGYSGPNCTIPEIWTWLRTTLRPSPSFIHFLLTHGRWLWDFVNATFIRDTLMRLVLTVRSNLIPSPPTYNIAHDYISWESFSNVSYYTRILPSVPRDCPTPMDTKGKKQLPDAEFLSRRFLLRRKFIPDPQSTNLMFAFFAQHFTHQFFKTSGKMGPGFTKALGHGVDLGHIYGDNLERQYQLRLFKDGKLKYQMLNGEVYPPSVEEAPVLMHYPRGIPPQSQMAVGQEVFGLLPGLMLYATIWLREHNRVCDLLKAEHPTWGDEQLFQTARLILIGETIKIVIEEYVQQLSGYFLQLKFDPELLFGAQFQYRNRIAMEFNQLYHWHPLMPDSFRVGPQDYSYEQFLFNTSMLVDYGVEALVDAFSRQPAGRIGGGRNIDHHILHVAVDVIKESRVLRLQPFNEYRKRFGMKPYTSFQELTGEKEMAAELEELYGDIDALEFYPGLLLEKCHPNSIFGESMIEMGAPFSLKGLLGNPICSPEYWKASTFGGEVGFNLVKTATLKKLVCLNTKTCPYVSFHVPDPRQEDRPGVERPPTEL
The series can be described thus: COX colorimetric inhibitor screening assay, COX-1.

The subject of series [5] is stomach mucosa, submucosa and mucosal glands. The experiment in a line: Histopathological study of rat stomach. It is filed as in vivo. The following applies: rats of the ulcerogenicity test, haematoxylin and eosin stain.
From the text: The stomachs of the rats used in ulcerogenicity test were subjected to a histopathological study to visualize the deep effects of ibuprofen and tested compounds on the stomach mucosa, submucosa and mucosal glands. The specimens were stained with haematoxylin and eosin stain [33].
The study investigated the deep effect of the tested compounds on the mucosa, submucosa and mucosal gland. The stomachs which were opened longitudinally along the greater curvature were used and the specimens were taken from the stomachs of all cases. These specimens were fixed in 10% formalin solution for 72 h. The samples were processed and embedded in paraffin wax. Microtomy was done and 5 microns tissue sections were obtained and mounted on clean glass slides.
Series [6] relates to rat stomach mucosa. The experiment in a line: Acute ulcerogenicity study. It is filed as in vivo. To be noted: oral, 0.48 mmol/kg; for Ulcerogenicity UI (ulcer index): three days, n = 6. The method, then: GIT toxicity is the main serious side effect of the NSAIDs. In this work, the ulcerogenicity of the novel compounds 12–19 was evaluated according to the previous reported methodology. The tested compounds 12–19 and ibuprofen were given orally in a dose of 0.48 mmol/kg.
(§1) Adult albino rats of both sex weighing 100–140 g were used in evaluation of the anti-inflammatory, analgesic, ulcerogenic activity in addition to the histopathological study of the new pyrrolizines 12–19. Animal ethical use clearance was obtained from the Ethical Committee at the College of Pharmacy, Umm Al-Qura University. Normalization of the animals with laboratory conditions were achieved by keeping them in laboratory one week before starting the experiments. Standard rat pellet diet was used for feeding animals and water ad libitum.
GIT toxicity was evaluated according to the previous report. Adult albino rats of both sexes were divided into groups of six animals each. The test compounds were dissolved first in 0.5 mL DMSO, then CMC (1%) was added dropwise with trituration. Rats were fasted 20 h before drug administration. The eight tested compounds and ibuprofen were given orally in a dose of 0.24 and 0.48 mmol/kg/day suspended in 1% CMC, while the control group received vehicle (1% CMC containing few drops of DMSO). Rats were then fasted for 2 h, allowed to feed for 2 h then fasted again for another 20 h. Other doses were given in the second and third days. In the fourth day, Pentobarbital (60 mg/kg IP) was used to induce deep anesthesia then rats were sacrificed. The stomachs were removed, opened along with the greater curvature and rinsed with 0.9% saline. The number of mucosal damages (red spots) were counted using magnifying lens and their severity (ulcerogenic severity) was graded in a scale from 0 to 3 as follows: (0) normal (no injury), (0.5) red coloration, (1) spot ulcer, (1.5) hemorrhagic streaks, (2) ulcer > 3 mm, (3) ulcer > 5 mm. The ulcer index was calculated using the following equation ulcer index (UI) = UN + US + UP/10, where UN is the average number pf ulcers per animal, US is the average of severity score, UP is the percent of animal with ulcer.

For series [7], the system named is carrageenan-induced rat paw edema. The series can be described thus: Carrageenan-induced rat paw edema model (anti-inflammatory activity). Type of series: in vivo. The arrangement: key to Potency (anti-inflammatory activity of tested compound/ibuprofen): ratio of % inhibition of edema (compound / ibuprofen); ibuprofen = 1.00. The following applies: for % Inhibition in Edema Thickness 1 h: 1 h after induction of inflammation; for % Inhibition in Edema Thickness 1 h / % Inhibition in Edema Thickness 2 h / % Inhibition in Edema Thickness 3 h: IP, dose molecularly equivalent to ibuprofen, n = 6; for % Inhibition in Edema Thickness 2 h: 2 h after induction of inflammation; for % Inhibition in Edema Thickness 3 h: 3 h after induction of inflammation; for Potency (anti-inflammatory activity of tested compound/ibuprofen): after 3 h of induction of inflammation, relative to ibuprofen; for anti-inflammatory activity (in words): compared with ibuprofen and parent compound 12.
From the text: The carrageenan-induced rat paw edema model was utilized to investigate the anti-inflammatory activity of compounds 12–19 relative to ibuprofen as a reference drug.
as §1
The anti-inflammatory activity of the novel compounds 12–19 was evaluated in comparison with ibuprofen as a standard, using a rat paw edema model as described by Winter et al.. Adult albino rats of both sexes (100–140 gm) were used. Rats were uniformly hydrated by giving 3 mL water for each rat through gastric inoculation to reduce variability to edema response. Animals were then divided into groups of six animal each. The control group was given saline solution containing few drops of sodium carboxymethyl cellulose (CMC) 1% and DMSO. Ibuprofen (50 and 100 mg/kg) was given as standard drug. The new compounds 12–19 in a dose molecularly equivalent to ibuprofen were dissolved in 0.5 mL DMSO and CMC 1% was added dropwise with continuous triturating to complete the specified volume. The tested compounds were administered intraperitoneally (IP). The induction of inflammation was achieved by subcutaneous (SC) injection of carrageenan-sodium gel, into the sub-plantar region of the right hind paw. The dorsoventral diameter (thickness) of the right and left hind paw of each rat was measured using digital calipers with accuracy of 0.01 mm (Cole-Parmer, Vernon Hills, IL, USA). The thickness of edema was measured 1, 2 and 3 h after induction of inflammation. The left hind paw diameter served as a control for the degree of inflammation in the right hind paw. The changes in the edema thickness were expressed as mean ± SEM, Figure 4. The anti-inflammatory activity was calculated as % inhibition of inflammation = (1 − Lt/Lc) × 100. Where Lt is the mean increase in paw thickness in rats treated with the tested compounds and Lc is the mean increase in paw thickness in control group. Data were collected, and statistically analyzed by One way ANOVA followed by student-Newman-Keuls multiple comparison test, Table 2.

Series [8] has as its system thermal pain (hot plate). The experiment in a line: Hot-plate test (analgesic activity). It is filed as in vivo, rat. To be noted: IP; for analgesic potency relative to ibuprofen: 0.48 mmol/kg; for analgesic activity (in words): 0.24 and 0.48 mmol/kg, 2 h after injection, compared with ibuprofen. (In general: Thermal pain tests record how soon the animal reacts.)
Experimental: A hot-plate was used to induce thermal pain and the cutoff time was fixed to 15 s [30]. […] The analgesic activity of the novel pyrrolizines were carried out using the thermal model (hot-plate test) according to a previous report [30]. An electronically controlled hot-plate (Harvard Apparatus Ltd., Kent, UK) was used and the cut-off time was 15 s and the temperature was adjusted to 52 ± 0.1 °C. Animals were then divided into groups of six animal each. Rats were assigned numbers of 1–6 in each group. The reference drug was given intraperitoneally at a dose of 50 mg/kg (0.24 mmol/kg) and 100 mg/kg (0.48 mmol/kg). […] The response latencies (time elapsed until licking paw or jumping) were measured and expressed as mean ± SEM. The percent changes (analgesic effects) of the tested compounds were calculated as percent change in latencies divided by baseline time (100 × (T1 − T0)/T0) and results were expressed as % change ± SEM, Figure 6.
Series [9] has as its target T2, COX-2 (human recombinant) (Homo sapiens, UniProt P35354).
T2 sequence (P35354 18-604): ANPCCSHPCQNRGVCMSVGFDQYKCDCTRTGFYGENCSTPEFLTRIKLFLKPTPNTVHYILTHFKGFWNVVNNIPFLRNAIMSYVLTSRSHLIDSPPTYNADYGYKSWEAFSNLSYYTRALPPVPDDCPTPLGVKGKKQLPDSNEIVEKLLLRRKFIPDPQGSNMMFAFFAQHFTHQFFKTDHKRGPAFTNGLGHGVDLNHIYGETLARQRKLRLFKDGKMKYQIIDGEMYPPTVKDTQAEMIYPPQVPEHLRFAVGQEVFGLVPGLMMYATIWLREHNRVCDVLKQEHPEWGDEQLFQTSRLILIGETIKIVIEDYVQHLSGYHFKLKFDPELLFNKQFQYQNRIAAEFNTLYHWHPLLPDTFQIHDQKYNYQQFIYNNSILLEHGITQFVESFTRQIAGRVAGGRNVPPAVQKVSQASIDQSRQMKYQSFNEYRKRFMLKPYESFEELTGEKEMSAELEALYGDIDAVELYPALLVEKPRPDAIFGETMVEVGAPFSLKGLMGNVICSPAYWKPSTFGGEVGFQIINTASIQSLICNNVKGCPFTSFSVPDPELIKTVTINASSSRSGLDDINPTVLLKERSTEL
The experiment in a line: COX colorimetric inhibitor screening assay, COX-2. To be noted: for SI (COX-2 selectivity index = IC50 of COX-1/IC50 of COX-2): in vitro.

For orientation: IC50 means the concentration that gives 50% inhibition. On to `CC1(C)Cc2c(-c3ccccc3)c(-c3ccc(Cl)cc3)c(CC(=O)O)n2C1` [Licofelone, licofelone], for which the IC50 is 210 nM in series [1], more than 30000 nM in [2] and 180 nM in series [3].
Take `O=C(c1ccccc1)c1ccc2n1CCC2C(=O)O` (stereo not drawn) [Ketorolac, ketorolac]: in series [1] (COX-1 over COX-2), the “selectivity ratio for COX-1” value is reported as 2.9. Besides, the IC50 was 1230 nM in series [1] and 3600 nM in [2].
In the case of `Cc1ccc(-c2c(-c3ccc(S(C)(=O)=O)cc3)cn3c2CCC3)cc1` [Compound 4], the IC50 in series [1] is 700 nM; in [2] it was 5 nM; in [3] it was 10000 nM.
`N#Cc1c(NC(=O)CCl)c(C(=O)Nc2ccc(Br)cc2)n2c1CCC2` [Compound 13, N-(4-Bromophenyl)-6-(2-chloroacetamido)-7-cyano-2,3-dihydro-1H-pyrrolizine-5-carboxamide]: half-maximal inhibition in series [4] (IC50) was put at 5690 nM. In addition, the “histopathological findings in stomach transverse sections” value (from here on “histopathological findings”) in series [5] is reported as “variable degrees of necrosis with some leukocytes infiltration”. Besides, in series [6], the “Ulcerogenicity UI (ulcer index)” value was 4.41 and the “Ulcerogenicity % Protection (% inhibition of ulcer relative to ibuprofen)” value worked out at 68.18%. Also, in [7], the “% Inhibition in Edema Thickness 1 h” value is 16.13%, the “% Inhibition in Edema Thickness 2 h” value is given as 35.43%, the “% Inhibition in Edema Thickness 3 h” value was determined as 52.31% and the “Potency (anti-inflammatory activity of tested compound/ibuprofen)” value is 1.28. For the same molecule, in series [7], the “anti-inflammatory activity (in words)” value is recorded as “the highest anti-inflammatory activity”. Moreover, in series [8], the “analgesic potency relative to ibuprofen” value is on record as 1.03 to 1.27 times and the “analgesic activity (in words)” value was “higher analgesic activity than ibuprofen”. In series [9], the 50% inhibitory concentration (IC50) was determined as 1640 nM and the “SI (COX-2 selectivity index = IC50 of COX-1/IC50 of COX-2)” value turned out to be 3.48.
On to `CC1(C)Cc2c(-c3ccccc3)c(-c3ccc(Cl)s3)c(CC(=O)O)n2C1` [Compound 3], for which the half-maximal inhibitory concentration (IC50) in [1] was 210 nM; in [3], 250 nM.
As for `COC1c2c(-c3ccccc3)c(-c3ccc(Cl)cc3)c(C)n2CC1(C)C` (stereo not drawn) [Compound 5], the IC50 in [1] was 500 nM; in series [2] it was 7500 nM; in series [3], 60 nM.
In turn, `Cc1ccc(S(=O)(=O)Nc2c(C#N)c3n(c2C(=O)Nc2ccc(Br)cc2)CCC3)cc1` [Compound 17, N-(4-Bromophenyl)-7-cyano-6-(4-methylphenylsulfonamido)-2,3-dihydro-1H-pyrrolizine-5-carboxamide] had a half-inhibitory concentration (IC50) in series [4] of 5010 nM. Also, in series [5], the “histopathological findings” value was “little histopathological effects such as congested blood vessels and variable degrees of leukocytes infiltration”. Moreover, in series [6], the “Ulcerogenicity UI (ulcer index)” value was found to be 2.26 and the “Ulcerogenicity % Protection (% inhibition of ulcer relative to ibuprofen)” value came to 83.69%. For the same molecule, in series [7], the “% Inhibition in Edema Thickness 1 h” value amounted to 27.19%, the “% Inhibition in Edema Thickness 2 h” value was found to be 40.55%, the “% Inhibition in Edema Thickness 3 h” value is reported as 49.47% and the “Potency (anti-inflammatory activity of tested compound/ibuprofen)” value is given as 1.21. Further, in series [8], the “analgesic potency relative to ibuprofen” value is reported as 1.03 to 1.27 times and the “analgesic activity (in words)” value was “higher analgesic activity than ibuprofen; also recorded: the most active”. Also, in [9], the IC50 was 1720 nM and the “SI (COX-2 selectivity index = IC50 of COX-1/IC50 of COX-2)” value is reported as 2.91.
In turn, `CN1CCN(CC(=O)Nc2c(C#N)c3n(c2C(=O)Nc2ccc(Br)cc2)CCC3)CC1` [Compound 14, N-(4-Bromophenyl)-7-cyano-6-(2-(4-methylpiperazin-1-yl)acetamido)-2,3-dihydro-1H-pyrrolizine-5-carbox-amide] registered an IC50 in [4] of 3500 nM. In addition, the “histopathological findings” value in series [5] is on record as “variable degrees of necrosis with some leukocytes infiltration”. Besides, in series [6], the “Ulcerogenicity UI (ulcer index)” value came to 4.66 and the “Ulcerogenicity % Protection (% inhibition of ulcer relative to ibuprofen)” value turned out to be 66.38%. In addition, in [7], the “% Inhibition in Edema Thickness 1 h” value is 8.30%, the “% Inhibition in Edema Thickness 2 h” value was 9.84%, the “% Inhibition in Edema Thickness 3 h” value came to 16.37% and the “Potency (anti-inflammatory activity of tested compound/ibuprofen)” value came to 0.40. In series [7], the “anti-inflammatory activity (in words)” value was “the least active one”. Further, the “analgesic activity (in words)” value in series [8] was “lower than that of ibuprofen; also recorded: the least active”. Also, in series [9], the IC50 was found to be 1090 nM and the “SI (COX-2 selectivity index = IC50 of COX-1/IC50 of COX-2)” value is listed as 3.21.
